Measured values: BindingDB's records for doi:10.1016/S0960-894X(00)80682-4 (1993)

Key:
[1] = Tested for its activity to inhibit the binding of [125I]gastrin to gastric glands (gastrin) in guinea pig
[2] = Tested for its activity to inhibit the binding of [125I]CCK-33 to Cholecystokinin type B receptor in guinea pig brain
[3] = Tested for its activity to inhibit the binding of [125I]gastrin to gastric glands (gastrin) in guinea pig; remark: listed apart in the source

Cn1c(C(=O)Nc2cc3c4ccccc4nc-3c[nH]2)cc2ccccc21 [1-Methyl-1H-indole-2-carboxylic acid (9H-beta-carbolin-3-yl)-amide]
IC50 [1]: > 100 µM | IC50 [2]: > 100 µM

O=C(Cc1ccccc1)Nc1cc2c3ccccc3nc-2c[nH]1 [N-(9H-beta-Carbolin-3-yl)-2-phenyl-acetamide]
IC50 [3]: 14 µM | IC50 [2]: 34 µM

O=C(Nc1cc2c3ccccc3nc-2c[nH]1)c1ccccc1 [N-(9H-beta-Carbolin-3-yl)-benzamide]
IC50 [3]: > 100 µM | IC50 [2]: 223 µM
